This is an account of results in patent US6376480B1, “Vitamin D derivatives with substituents at C-25, process for their production, intermediate products and use for the production of pharmaceutical agents” (Schering Aktiengesellschaft, priority 1995, dated 2002).

Series [1] deals with HL 60 cells. The series can be described thus: differentiation induction of HL 60 cells to macrophages (NBT reduction). It is filed as cell-based, human. The note with it: DR = test substance dose/calcitriol dose for comparable semi-maximum effects; 96 hours incubation. The procedure: It is known in the literature (Mangelsdorf, D. J. et al., J. Cell. Biol. 98: 391-398 (1984)), that the treatment of human leukemia cells (promyelocyte cell line HL 60) in vitro with calcitriol induces the differentiation of cells to macrophages.
HL 60 cells are cultivated in tissue culture medium (RPMI 10% fetal calf serum) at 37° C. in an atmosphere of 5% CO2 in air.
For substance testing, the cells are centrifuged off, and 2.0×10^5 cells/ml in phenol red-free tissue culture medium is taken up. The test substances are dissolved in ethanol and diluted with tissue culture medium without phenol red to the desired concentration. The dilution stages are mixed with the cell suspension at a ratio of 1:10, and 100 μl each of this cell suspension that is mixed with substance is pipetted into an indentation of a 96-hole plate. For control, a cell suspension is mixed analogously with the solvent.
After incubation for 96 hours at 37° C. in 5% CO2 in air, 100 μl of an NBT-TPA solution (nitro blue tetrazolium (NBT), final concentration in the batch of 1 mg/ml, tetradecanoyl phorbolmyristate-13-acetate (TPA), final concentration in the batch of 2×10^−7 mol/l) is pipetted into each indentation of the 96-hole plate in the cell suspension.
By incubation for 2 hours at 37° C. and 5% CO2 in air, NBT is reduced to insoluble formazan because of the intracellular oxygen radical release, stimulated by TPA, in the cells that are differentiated to macrophages.
To complete the reaction, the indentations of the 96-hole plate are suctioned off, and the cells are affixed to the bottom of the plate by adding methanol and dried after affixing. To dissolve the intracellular formazan crystals that are formed, 100 μl of potassium hydroxide (2 mol/l) and 100 μl of dimethyl sulfoxide are pipetted into-each indentation and ultrasonically treated for 1 minute. The concentration of formazan is measured by spectrophotometry at 650 nm.
As a yardstick for the differentiation induction of HL 60 cells to macrophages, the concentration of formed formazan applies.

Series [2] has as its system healthy male rats. The series can be described thus: acute hypercalcemic action after one-time subcutaneous administration. As to conditions: DR = test substance dose/calcitriol dose for comparable effects, serum-calcium. It is filed as in vivo, rat. The procedure:
To determine the acute hypercalcemic action of various calcitriol derivatives, the test that is described below is carried out:
The action of control (solution base), reference substance (1,25(OH)2—D3=calcitriol) and test substance is tested in each case after one-time subcutaneous administration in groups of 10 healthy male rats (140-170 g). During the testing time, the rats are kept in special cages to determine the excretion of water and mineral substances. Urine is collected in 2 fractions (0-16 hours and 16-22 hours). An oral dose of calcium (0.1 mmol of calcium in 6.5% alpha-hydroxypropylcellulose, 5 ml/animal) replaces at 1600 hours the calcium intake that is lacking by food deprivation. At the end of the test, the animals are killed by decapitation and exsanguinated to determine the serum-calcium values. For the primary screen test in vivo, an individual standard dose (200 μg/kg) is tested. For selected substances, the result is supported by establishing a dose-effect relation.
A hypercalcemic action is shown in serum-calcium level values that are higher than in the control.
The significance of differences between substance groups and controls and between test substance and reference substance are supported with suitable statistical processes.

Series [3] concerns the target T1, calcitriol receptor (Sus scrofa, UniProt A3RGC1).
T1 sequence (A3RGC1 1-427): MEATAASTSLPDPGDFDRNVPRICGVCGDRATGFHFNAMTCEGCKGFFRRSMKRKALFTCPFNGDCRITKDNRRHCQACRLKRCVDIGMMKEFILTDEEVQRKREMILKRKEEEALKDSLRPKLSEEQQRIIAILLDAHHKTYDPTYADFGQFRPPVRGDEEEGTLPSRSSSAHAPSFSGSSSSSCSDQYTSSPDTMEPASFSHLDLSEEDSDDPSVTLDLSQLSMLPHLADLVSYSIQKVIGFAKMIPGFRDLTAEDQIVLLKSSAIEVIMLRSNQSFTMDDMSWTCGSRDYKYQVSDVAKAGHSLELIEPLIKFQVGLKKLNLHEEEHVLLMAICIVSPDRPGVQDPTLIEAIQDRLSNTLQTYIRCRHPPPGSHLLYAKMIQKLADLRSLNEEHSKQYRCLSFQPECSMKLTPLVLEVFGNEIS
In words: calcitriol-receptor test (competition with 3H-calcitriol). The note with it: quotient of concentrations of test substance and calcitriol for 50% competition, receptor protein from intestines of juvenile pigs.
Experimental: The vitamin D activity of the substances according to the invention is determined with the aid of the calcitriol-receptor test. It is carried out with use of a specific receptor protein from the intestines of juvenile pigs.
Then, the samples are centrifuged at 10,000×g for 5 minutes at 4° C. The supernatant is decanted and measured in a β-counter after 1 hour of equilibration in Picofluor 15™.
The competition curves that are obtained with various concentrations of test substance as well as of reference substance (unlabeled calcitriol) at constant concentration of the reference substance (^3H-calcitriol) are placed in relation to one another and a competition factor (KF) is determined.
It is defined as a quotient of the concentrations of the respective test substance and the reference substance, which are necessary for 50% competition: [formula]

Series [4] deals with HL 60 cells. In words: antagonism of the action of calcitriol in HL 60 cells. It is filed as cell-based, human.

Molecules are shown by their SMILES. Bounds are passed on as bounds.

Take `C=C1/C(=C\C=C2/CCC[C@]3(C)[C@@H]([C@H](C)CCCC(C)(C)O)CC[C@@H]23)C[C@@H](O)C[C@@H]1O` [Calcitriol, 1α,25-dihydroxy vitamin D3, reference compound]: the “Dose Ratio for Differentiation Induction in HL 60 Cells” value in series [1] was 1. The “dose ratio for hypercalcemia” value in series [2] is on record as 1.
Consider `C=C1C(=CC=C2CCCC3(C)C2CCC3C(C)C=CC(O)C2(C(C)=O)CC2)CC(O)CC1O` [Compound 7b, (5Z,7E,22E)-(1S,3R,24R)-25-Acetyl-26,27-cyclo-9,10-secocholesta-5,7,10(19),22-tetraene-1,3,24-triol], for which the “Dose Ratio for Differentiation Induction in HL 60 Cells” value in series [1] turned out to be 0.5. In addition, the “dose ratio for hypercalcemia” value in series [2] is given as 300. The “Competition Factor KF for Receptor Bonding” value (“Competition Factor KF” below) in series [3] is reported as 1.
For the compound `C=C1/C(=C\C=C2/CCC[C@]3(C)[C@@H]([C@H](C)/C=C/[C@@H](O)C4(C(=O)CCC)CC4)CC[C@@H]23)C[C@@H](O)C[C@@H]1O` [Compound 8b, (5Z,7E,22E)-(1S,3R,24R)-25-(1-oxobutyl)-26,27-cyclo-9,10-secocholesta-5,7,10(19),22-tetraene-1,3,24-triol], in series [1], the “Dose Ratio for Differentiation Induction in HL 60 Cells” value was found to be 0.9. In series [2], the “dose ratio for hypercalcemia” value is 100. Further, the “Competition Factor KF” value in series [3] amounted to 2.
The matching figures for `C=C1/C(=C\C=C2/CCC[C@]3(C)[C@@H]([C@H](C)/C=C/[C@@H](O)C4(C(=O)C(C)(C)C)CC4)CC[C@@H]23)C[C@@H](O)C[C@@H]1O` [Compound 15b, (5Z,7E,22E)-(1S,3R,24R)-25-(2,2-Dimethyl-1-oxopropyl)-26,27-cyclo-9,10-secocholesta-5,7,10(19),22-tetraene-1,3,24-triol]: 1.1, 300 and 6.
Regarding `C=C1/C(=C\C=C2/CCC[C@]3(C)[C@@H]([C@H](C)/C=C/[C@@H](O)C4(C(=O)C#CCCC)CC4)CC[C@@H]23)C[C@@H](O)C[C@@H]1O` [Compound 19b, (5Z,7E,22E)-(1S,3R,24R)-25-(1-Oxo-2-hexinyl)-26,27-cyclo-9,10-secocholesta-5,7,10(19),22-tetraene-1,3,24-triol], the “Dose Ratio for Differentiation Induction in HL 60 Cells” value in series [1] was found to be 1.5. Further, the “dose ratio for hypercalcemia” value in series [2] is over 300. Moreover, the “Competition Factor KF” value in series [3] is listed as 2.
With `CCCCC(=O)C1([C@H](O)/C=C/[C@@H](C)[C@H]2CC[C@H]3/C(=C/C=C4C[C@@H](O)C[C@H](O)C4)CCC[C@]23C)CC1` [Compound 58b, (7E,22E)-(1R,3R,24R)-25-(1-Oxopentyl)-26,27-cyclo-19-nor-9,10-secocholesta-5,7,22-triene-1,3,24-triol], in series [1], the “Dose Ratio for Differentiation Induction in HL 60 Cells” value stood at 160. For the same compound, in series [4], the “antagonism of the action of calcitriol in HL 60 cells” value is reported as “antagonize the action of calcitriol”. Further, the “Competition Factor KF” value in series [3] came to 3.
The matching figures for `CCCCCC(=O)C1([C@H](O)/C=C/[C@@H](C)[C@H]2CC[C@H]3/C(=C/C=C4C[C@@H](O)C[C@H](O)C4)CCC[C@]23C)CC1` [Compound 61b, (7E,22E)-(1R,3R,24R)-25-(1-Oxohexyl)-26,27-cyclo-19-nor-9,10-secocholesta-5,7,22-triene-1,3,24-triol]: over 1000, “antagonize the action of calcitriol” and 3.
For `CCCCCCC(=O)C1([C@@H](O)/C=C/[C@@H](C)[C@H]2CC[C@H]3/C(=C/C=C4C[C@@H](O)C[C@H](O)C4)CCC[C@]23C)CC1` [Compound 64a, (7E,22E)-(1R,3R,24S)-25-(1-Oxoheptyl)-26,27-cyclo-19-nor-9,10-secocholesta-5,7,22-triene-1,3,24-triol] the same measures were 120, “antagonize the action of calcitriol” and 3.5.
The matching figures for `CCCCCC(=O)C1([C@H](O)/C=C/C(C)(C)[C@H]2CC[C@H]3/C(=C/C=C4C[C@@H](O)C[C@H](O)C4)CCC[C@]23C)CC1` [Compound 87b, (7E,22E)-(1R,3R,24R)-20-methyl-25-(1-oxohexyl)-26,27-cyclo-19-nor-9,10-secocholesta-5,7,22-triene-1,3,24-triol]: 116, “antagonize the action of calcitriol” and 3.
